Results from patent publication US8669253B2, “Methods for treating glaucoma and macular degeneration” (Duke University, priority 2006, dated 2014).
Where “and” joins values, the source holds several entries; their conditions need not be identical. Equal values may be shown once. Entries after “also recorded” stand apart in the source; their conditions may differ.

What was measured:
[1] = test system: Rho, Rap and G-beta/gamma in trabecular meshwork (TM) cells; assay: Membrane localization of Rho, Rap and G-beta/gamma in TM cells; assay type: cell-based, porcine; settings: drug-treated TM cells
Description: (§1) Methods: A selective inhibitor of GGTase-I (GGTI-DU40) was tested in this study to investigate its effects on actin cytosketal integrity, cell adhesions, cell-cell junctions, myosin II phosphosphorylation, and membrane localization of Rho, Rap and G-beta/gamma in trabecular meshwork (TM) cells, using immunofluorescence detection and immunobloting analysis. The effects of GGTI-DU40 on aqueous humor outflow were determined using organ cultured, perfused anterior segments of porcine eyes.

[2] = test system: myosin light chain (MLC) phosphorylation in porcine primary TM cells; assay: Myosin light chain phosphorylation in TM cells; assay type: cell-based; settings: 6 hours, 10% serum
Description: as §1
Porcine primary TM cells were treated with GGTI compounds for 6 hours in the presence of 10% serum and the cell lysates were analyzed for the changes in myosin light chain (MLC) phosphorylation using phosphospecific-anti-MLC antibody.

MDA-MB-231 cells [3] = assay: Thrombin-induced cell rounding; assay type: cell-based; settings: 24 h pretreatment, GGTI-DU40 5 μM, SN-DU40 and FTI 20 μM, thrombin 20 min
Description: For the experiments assessing thrombin effects on cell morphology, MDA-MB-231 cells were plated onto glass-bottom microwell dishes at 10-20% confluence and grown for 18-24 h in the presence of serum. Cells were then washed once with PBS and media replaced with serum-free media (DMEM) including indicated compounds and incubated an additional 24 h. Cells were then imaged, treated with thrombin (1 U/mL for 20 min), and imaged again.

[4] = test system: porcine TM primary cell cultures; assay: TM cell morphology, actin cytoskeleton and focal adhesions; assay type: cell-based; settings: 5 to 40 μM, 6 hours, 10% serum
Description: as §1
The porcine TM primary cell cultures were treated with GGTI compounds in the presence of 10% serum for 6 hours and recorded for the changes in cell morphology (phase contrast microscope), actin cytoskeletal organization (phalloidin staining) and focal adhesions (vinculin staining).

Icmt = target: T1, Icmt (Homo sapiens, UniProt O60725); assay: Icmt assay; assay type: biochemical; settings: concentration range tested
T1 construct: made in house; host or cells: Sf9 (membrane preparation)
Description: Icmt assays were performed as described previously (27). Briefly, reactions were performed using biotin-S-famsyl-L-cysteine (4 μM) as a substrate and ^3H-AdoMet (5 μM, 7.5 Ci/mmol) as a methyl donor. Reactions were initiated by the addition of Sf9 membranes containing recombinant human Icmt (2 μg totoal protein) in the presence and absence of inhibitors. Reactions were carried out at room temperature for 20 min, and product formation determined.

GGTase-I = target: T2, GGTase-I (Homo sapiens, UniProt P53609); assay: GGTase-I enzyme assay (3H-GGPP incorporation into Ras-CVLL); assay type: biochemical, mammalian
T2 construct: made in house; host or cells: Sf9 cells
Description: (§2) FTase and GGTase-I activities were determined by following incorporation of radiolabeled isoprenoid from ^3H-FPP and ^3H-GGPP into Ras proteins as described previously (28). Briefly, purified mammalian FTase or GGTase-I (50 ng, expressed in Sf9 cells) (29, 30) were used to initiate reactions containing 0.5 μM FPP or GGPP, respectively and 1 μM of the appropriate purified His-tagged Ras substrates (H-Ras for FTase; Ras-CVLL for GGTase-I). Where indicated in the appropriate Figure legend, inhibitors were added at the indicated concentrations. Final DMSO concentration was 2% for all samples. Reactions were carried out for 10 min at 30° C. before precipitation and product determination. Kinetic assays in which GGPP concentration was varied employed 5 ng GGTase-I, and reactions were carried out for five min to prevent GGTase-I concentration from exceeding GGPP concentration.
Graphing and curve fitting were performed using Prism (GraphPad, SanDiego Calif.). Substrate-velocity curves were fit to the Michaelis-Menten equation, while double-reciprocal plots were fit using linear regression. The Ki for GGTI-DU40 was calculated using nonlinear regression and shared parameter curve fitting for all inhibitor concentrations, the velocity equation used was v=Vmax[S]/(Km(1+([I]/Ki))+[S]).

[5] = test system: GFP-Ras-CVLL in MDCK cells; assay: Localization of GFP-Ras-CVLL in MDCK cells; assay type: cell-based; settings: for localization of Ras-CVLL: 20 μM, 24 h
Description: (§3) MDCK cells stably expressing GFP-H-Ras were a gift from Mark Philips (New York University School of Medicine). Ras-CVLL was cloned into pEGFP (Clontech) and used to transfect MDCK cells. Stable clones were then selected using […] Geneticin and expression confirmed by analysis of GFP expression as visualized by fluorescence microscopy. MDCK cells were always cultured as a monolayer in DMEM with 10% FBS. For drug treatment experiments, cells were plated onto glass-bottom microwell dishes (MatTek Corp, Ashland, Mass.) and experiments initiated approximately 24 h after cells reached confluence. All compounds tested were dissolved in DMSO and added to cells at a final DMSO concentration of 0.02%.
(§4) Assessment of receptor independent cell rounding was accomplished using adenovirus expressing the activated mutant of Gα12, Gα12QL (31). MDA-MB-231 cells were plated onto glass-bottom microwell dishes at 60% confluence and grown for 18-24 h in the presence of serum. Cells were then washed once with PBS and media replaced with serum-free media (DMEM) including any indicated compounds and incubated 6 h before addition of recombinant adenovirus. Following an additional 12 h incubation, cells were imaged using brightfield and GFP fluorescence microscopy. Cell images were acquired using an Eclipse TE300 microscope (Nikon) using either an oil immersion lens at 600× (for fluorescence of MDCK cells) or a plan fluor lens at 200× (for MBA-321 cells) and a SPOT digital camera (Diagnostic Instruments, Sterling Heights, Mich.) employing SPOT RT 3.02 software.

GFP-H-Ras in MDCK cells = assay: Localization of GFP-H-Ras in MDCK cells; assay type: cell-based; settings: 20 μM, 24 h
Description: as §3
as §4, with “Cells were then washed once with PBS and media replaced with serum-free media (DMEM) including any indicated compounds and incubated 6 h before addition of recombinant adenovirus.” left out

MDA-MB-231 cells [6] = assay: Thrombin-induced calcium mobilization (Fura-2); assay type: cell-based; settings: 5 μM, 24 h
Description: For the experiments assessing thrombin-induced calcium flux, MDA-MB-231 were plated on glass coverslips and treated similarly to that described for the thrombin rounding experiments. Calcium flux was measured 24 h after withdrawal of serum and addition of inhibitors using the calcium-sensitive dye Fura 2-AM (Molecular Probes Inc)(32). MDA-MB-231 cells were dye loaded for 1 h with 2.5 μM Fura-2 AM in Hanks balanced salt solution (HBSS, supplemented with 10 mM glucose and 0.1% BSA). After dye loading, the coverslips were placed in a temperature controlled recording chamber and superfused with Hanks solution. Cells were excited alternately at 340 and 380 nm and fluorescence emission at 510 nm was measured every four sec during the course of each experiment. After baseline recording for 2 min, thrombin (1 U/mL) was superfused into the bath chamber for 1 min (˜20 mL), followed by washout. Data is presented after baseline subtraction to show thrombin dependent calcium flux. Fluorescence measurements were acquired using a DeltaScan Illumination System (Photon Technology International (PTI), South Brunswick, N.J.) running on FELIX 1.4 software.

[7] = test system: organ cultured anterior segments of porcine eyes; assay: Aqueous humor outflow facility in organ cultured, perfused anterior segments; settings: 10 μM or 25 μM, perfused for 24 to 96 hours, n=8, change from baseline facility
Description: as §1
GGTI-396586 was perfused in organ cultured anterior segments of enucleated porcine eyes at a constant flow at 37° C. Changes in aqueous humor outflow facility were determined. Values are expressed as percent change in outflow facility from baseline facility.

MDA-MB-231 cells [8] = assay: Receptor independent cell rounding by Gα12QL expression; assay type: cell-based
Description: as §4

FTase = target: T3, FTase (Homo sapiens, UniProt P49356); assay: FTase enzyme assay (3H-FPP incorporation into H-Ras); assay type: biochemical, mammalian
T3 construct: made in house; host or cells: Sf9 cells
Description: as §2

[9] = target: T4, GGTase-II (Rab geranylgeranyltransferase) (Bos taurus, UniProt Q5E9B3); assay: GGTase-II activity assay (bovine brain cytosol, Rab5a substrate); assay type: biochemical; settings: concentration range tested
T4 construct: bovine brain cytosol (200 μg protein) as the enzyme source; from tissue; host or cells: bovine brain cytosol
T4 sequence (Q5E9B3 1-331): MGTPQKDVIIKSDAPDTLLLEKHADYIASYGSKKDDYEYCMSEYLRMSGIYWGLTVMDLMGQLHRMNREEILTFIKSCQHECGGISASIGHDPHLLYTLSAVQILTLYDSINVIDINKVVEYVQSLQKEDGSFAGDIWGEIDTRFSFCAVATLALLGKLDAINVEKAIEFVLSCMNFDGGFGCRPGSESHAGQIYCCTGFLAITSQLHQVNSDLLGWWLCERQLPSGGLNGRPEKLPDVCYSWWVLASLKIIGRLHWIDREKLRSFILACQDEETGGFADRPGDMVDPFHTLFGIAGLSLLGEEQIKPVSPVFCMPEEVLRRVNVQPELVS
Description: GGTase-II activity was measured used bovine brain cytosol (200 μg protein) as the enzyme source and purified GST-tagged Rab5a as the protein substrate. The pGEX-Rab5a construct was a gift from Adrienne Cox (University of North Carolina). The assay was performed identically to that described above for the CaaX prenyltransferases except for the enzyme source and protein substrate and that the reaction time was increased to for 30 min.

[10] = test system: Rho association with RhoGDI in MDA-MB-231 cells; assay: RhoGDI-Rho interaction assay (GST-RhoGDI pull-down); assay type: cell-based; settings: 24 h, GGTI-DU40 5 μM, FTI 20 μM
Description: The interaction of GST-RhoGDI with endogenous Rho was assessed by protein interaction experiments. RhoGDI was generated as a glutathione-S-transferase fusion protein using a construct provided by Gary Bokoch (Scripps). The GST-RhoGDI fusion protein was incubated with treated MDA-MB-231 cell lysates (prepared identically to Gβγ partitioning above) for 1 hr at 4° C. in a total volume of 200 μl. Glutathione-sepharose was added and the mixture rotated at 4° C. for 30 min after which the affinity matrix was pelleted and washed three times with 500 μl of incubation buffer (70 mM HEPES, pH 7.5, 2 mM EDTA, 1 mM DTT, 150 mM NaCl, 0.1% Tween, 100 μM GDP, 2 mM MgCl2). Proteins retained on the matrix were solubilized in 2× Laemmli loading buffer and separated by electrophoresis on denaturing, 4-20% polyacrylamide gels. Proteins were transferred to nitrocellulose membranes for immunoblotting with an anti-RhoA antibody (Santa Cruz, sc-179).

Gβγ in MDA-MB-231 cells = assay: Gβγ membrane partitioning; assay type: cell-based; settings: 24 h
Description: MDA-MB-231 cells were grown in 10 cm dishes and treated exactly as in the thrombin cell rounding assay. Following drug treatment in serum free media, cells were harvested and lysed using ice cold hypotonic lysis buffer (70 mM HEPES pH 7.4, 2 mM EDTA, 1 mM DTT, and protease inhibitors). Following sonication, the whole cell lysate (75 μg protein) was centrifuged at 100,000×g for 45 min. Both the supernatant (S100) and pellet (P100) fractions were processed on 4-20% SDS-polyacrylamide gels and proteins transferred to nitrocellulose membranes for immunoblot analysis.

[11] = test system: Rap1 prenylation in MDA-MB-231 cells; assay: Unprenylated Rap1 analysis (immunoblot); assay type: cell-based; settings: 24 h
Description: To measure levels of unprenylated Rap1 in cells, whole cell lysates of MDA-MB-231 cells (prepared identically to Gβγ partitioning above, 75 ug) were mixed with Laemmli loading buffer and boiled. Samples were then separated by electrophoresis on denaturing 4-20% polyacrylamide gels and proteins transferred to nitrocellulose membranes for immunoblotting with antisera specific for the unprenylated form of Rap1 (Santa Cruz, sc-1482, goat). Sample loading was verified by reprobing blots with antisera for total Rap1 (Santa Cruz, sc-65, rabbit).

T1 sequence (O60725 whole entry): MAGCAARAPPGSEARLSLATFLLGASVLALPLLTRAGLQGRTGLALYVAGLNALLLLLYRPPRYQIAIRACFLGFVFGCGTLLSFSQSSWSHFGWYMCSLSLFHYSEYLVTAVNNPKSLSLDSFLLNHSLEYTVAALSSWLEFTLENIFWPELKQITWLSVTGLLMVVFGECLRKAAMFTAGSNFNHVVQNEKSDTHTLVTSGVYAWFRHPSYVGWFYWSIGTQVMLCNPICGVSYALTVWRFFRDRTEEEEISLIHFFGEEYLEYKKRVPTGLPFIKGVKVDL

## CSCCc1c(-c2cccnc2)nn(-c2ccc(Cl)c(Cl)c2)c1OCCCC(=O)N[C@@H](Cc1ccccc1)C(N)=O [GGTI-DU40, N—[(S)-1-Carbamoyl-2-phenylethyl]-4-[2-(3,4-dichlorophenyl)-4-(2-methylsulfanylethyl)-5-pyridin-3-yl-2-H-pyrazol-3-yloxy]butyramide]
[1]
  membrane localization of Rho, Rap and G-beta/gamma: impaired
[2]
  myosin light chain phosphorylation: decreased significantly; also recorded: significantly reduced
MDA-MB-231 cells [3]
  thrombin-stimulated cell rounding: dramatically inhibited
[4]
  actin stress fibers and focal adhesions: reversible decreases
  changes in TM cell morphology: dose dependent
Icmt
  activity against Icmt methyltransferase: no detectable activity
GGTase-I
  FTase/GGTase-I selectivity ratio: > 250
GGTase-I; GGPP fixed, Ras-CVLL varied, 2-20 nM inhibitor
  mode of inhibition with respect to the protein substrate: competitive inhibitor
GGTase-I; Ras-CVLL fixed, GGPP varied, 2-20 nM inhibitor
  mode of inhibition with respect to GGPP: uncompetitive inhibitor
GGTase-I; data not shown
  time-dependent inhibition of GGTase-I: no such behavior was observed
GGTase-I; protein substrate competition data, nonlinear regression, read-out: Ki for GGTase-I inhibition
  Ki: < 1 nM and 0.78 nM and 0.8 nM
GGTase-I; purified GGTase-I
  IC50: 8.24 nM
[5]
  localization of Ras-CVLL: complete mislocalization
[5]; data not shown
  lowest inhibitor concentration at which Ras-CVLL mislocalization could be detected: 2 µM
GFP-H-Ras in MDCK cells
  localization of H-Ras: without an effect
MDA-MB-231 cells [6]
  ability of thrombin to elicit calcium mobilization: unaffected
MDA-MB-231 cells [6]; integration of time with fluorescence
  total calcium flux versus control: no statistical difference
[7]
  increase in aqueous outflow facility: 30%
MDA-MB-231 cells [8]
  rounding of cells elicited by expression of Gα12QL: blocked
FTase
  IC50: > 2000 nM
[9]
  activity against GGTase-II: no detectable activity
[10]
  ability of Rho proteins to associate with RhoGDI: almost complete loss
Gβγ in MDA-MB-231 cells
  membrane-associated Gβγ: partial loss
[11]
  level of unmodified (unprenylated) Rap1: dose dependent increase

## CC[C@H](C)[C@@H](CO[C@@H](Cc1ccccc1)C(=O)N[C@@H](CCS(C)(=O)=O)C(=O)OC(C)C)NC[C@@H](N)CS [L-744,832, reference compound]
MDA-MB-231 cells [3]
  thrombin-stimulated cell rounding: normal rounding
[5]
  localization of Ras-CVLL: no detectable mislocalization
GFP-H-Ras in MDCK cells
  localization of H-Ras: almost complete mislocalization
[10]
  ability of Rho proteins to associate with RhoGDI: no effect
[11]
  level of unmodified (unprenylated) Rap1: no effect
